Key:
VHR = VHR (Homo sapiens (Human), UniProt P51452); assay: PTP selectivity panel, pNPP; type: biochemical, mammalian; conditions: pNPP at Km
PTPμ = PTPμ (Homo sapiens (Human), UniProt P28827); assay: PTP selectivity panel, pNPP; type: biochemical, mammalian; conditions: pNPP at Km
PTPα = PTPα (Homo sapiens (Human), UniProt P18433); assay: PTP selectivity panel, pNPP; type: biochemical, mammalian; conditions: pNPP at Km
PEZ = PEZ (Homo sapiens (Human), UniProt Q15678); assay: PTP selectivity panel, pNPP; type: biochemical, mammalian; conditions: pNPP at Km
PTPε = PTPε (Homo sapiens (Human), UniProt P23469); assay: PTP selectivity panel, pNPP; type: biochemical, mammalian; conditions: pNPP at Km
[1] = test system: PMA-induced Erk1/2 phosphorylation; assay: PMA-induced Erk1/2 phosphorylation; type: cell-based
Procedure: To provide further evidence that the observed cellular effect of compound 11a-1 is SHP2 dependent, the effect of compound 11a-1 on PMA (phorbol 12-myristate 13-acetate)-induced Erk1/2 activation, which is SHP2 independent and instead depends on the activation of protein kinase C and Raf in a Ras-independent manner, was evaluated. Thus, SHP2 inhibitors would not be expected to affect PMA-induced Erk1/2 phosphorylation. Indeed, compound 11a-1 had no effect on PMA-induced Erk1/2 phosphorylation (FIG. 6D).

H1975 cells = assay: H1975 cell proliferation (MTT assay); type: cell-based; conditions: Homo sapiens, NCI-H1975, 48 h, treatment for 2 days
Procedure: Particularly, human non-small cell lung carcinoma cell line H1975 was obtained from the American Tissue Culture Collection and cultured at 37° C. and 5% CO2 in RPMI-1640 (Corning, Corning, N.Y.) supplemented with 10% fetal bovine serum. 3×10^3 cells were seeded in each well of 96-well plates. After treatment with compound 11a-1 for 2 days, cells were incubated with 50 μg/ml MTT (3-(4,5-Dimethylthiazol-2-yl)-2,5-diphenyltetrazolium bromide (Sigma, St. Louis, Mo.) for 3-4 hours. Then, the culture medium was removed, DMSO was added to dissolve the formazan crystals. Wells containing only media were used for background correction. The optical density was measured spectrophotometrically at 540 nm.

PTP1B = PTP1B (Homo sapiens (Human), UniProt P18031); assay: PTP selectivity panel, pNPP; type: biochemical, mammalian
mPTPA = mPTPA (Mycobacterium tuberculosis (strain ATCC 25618 / H37Rv), UniProt P9WIA1); assay: PTP selectivity panel, pNPP; type: biochemical; conditions: pNPP at Km
PTPσ = PTPσ (Homo sapiens (Human), UniProt Q13332); assay: PTP selectivity panel, pNPP; type: biochemical, mammalian; conditions: pNPP at Km
Chain of PTPσ (Q13332 30-1948): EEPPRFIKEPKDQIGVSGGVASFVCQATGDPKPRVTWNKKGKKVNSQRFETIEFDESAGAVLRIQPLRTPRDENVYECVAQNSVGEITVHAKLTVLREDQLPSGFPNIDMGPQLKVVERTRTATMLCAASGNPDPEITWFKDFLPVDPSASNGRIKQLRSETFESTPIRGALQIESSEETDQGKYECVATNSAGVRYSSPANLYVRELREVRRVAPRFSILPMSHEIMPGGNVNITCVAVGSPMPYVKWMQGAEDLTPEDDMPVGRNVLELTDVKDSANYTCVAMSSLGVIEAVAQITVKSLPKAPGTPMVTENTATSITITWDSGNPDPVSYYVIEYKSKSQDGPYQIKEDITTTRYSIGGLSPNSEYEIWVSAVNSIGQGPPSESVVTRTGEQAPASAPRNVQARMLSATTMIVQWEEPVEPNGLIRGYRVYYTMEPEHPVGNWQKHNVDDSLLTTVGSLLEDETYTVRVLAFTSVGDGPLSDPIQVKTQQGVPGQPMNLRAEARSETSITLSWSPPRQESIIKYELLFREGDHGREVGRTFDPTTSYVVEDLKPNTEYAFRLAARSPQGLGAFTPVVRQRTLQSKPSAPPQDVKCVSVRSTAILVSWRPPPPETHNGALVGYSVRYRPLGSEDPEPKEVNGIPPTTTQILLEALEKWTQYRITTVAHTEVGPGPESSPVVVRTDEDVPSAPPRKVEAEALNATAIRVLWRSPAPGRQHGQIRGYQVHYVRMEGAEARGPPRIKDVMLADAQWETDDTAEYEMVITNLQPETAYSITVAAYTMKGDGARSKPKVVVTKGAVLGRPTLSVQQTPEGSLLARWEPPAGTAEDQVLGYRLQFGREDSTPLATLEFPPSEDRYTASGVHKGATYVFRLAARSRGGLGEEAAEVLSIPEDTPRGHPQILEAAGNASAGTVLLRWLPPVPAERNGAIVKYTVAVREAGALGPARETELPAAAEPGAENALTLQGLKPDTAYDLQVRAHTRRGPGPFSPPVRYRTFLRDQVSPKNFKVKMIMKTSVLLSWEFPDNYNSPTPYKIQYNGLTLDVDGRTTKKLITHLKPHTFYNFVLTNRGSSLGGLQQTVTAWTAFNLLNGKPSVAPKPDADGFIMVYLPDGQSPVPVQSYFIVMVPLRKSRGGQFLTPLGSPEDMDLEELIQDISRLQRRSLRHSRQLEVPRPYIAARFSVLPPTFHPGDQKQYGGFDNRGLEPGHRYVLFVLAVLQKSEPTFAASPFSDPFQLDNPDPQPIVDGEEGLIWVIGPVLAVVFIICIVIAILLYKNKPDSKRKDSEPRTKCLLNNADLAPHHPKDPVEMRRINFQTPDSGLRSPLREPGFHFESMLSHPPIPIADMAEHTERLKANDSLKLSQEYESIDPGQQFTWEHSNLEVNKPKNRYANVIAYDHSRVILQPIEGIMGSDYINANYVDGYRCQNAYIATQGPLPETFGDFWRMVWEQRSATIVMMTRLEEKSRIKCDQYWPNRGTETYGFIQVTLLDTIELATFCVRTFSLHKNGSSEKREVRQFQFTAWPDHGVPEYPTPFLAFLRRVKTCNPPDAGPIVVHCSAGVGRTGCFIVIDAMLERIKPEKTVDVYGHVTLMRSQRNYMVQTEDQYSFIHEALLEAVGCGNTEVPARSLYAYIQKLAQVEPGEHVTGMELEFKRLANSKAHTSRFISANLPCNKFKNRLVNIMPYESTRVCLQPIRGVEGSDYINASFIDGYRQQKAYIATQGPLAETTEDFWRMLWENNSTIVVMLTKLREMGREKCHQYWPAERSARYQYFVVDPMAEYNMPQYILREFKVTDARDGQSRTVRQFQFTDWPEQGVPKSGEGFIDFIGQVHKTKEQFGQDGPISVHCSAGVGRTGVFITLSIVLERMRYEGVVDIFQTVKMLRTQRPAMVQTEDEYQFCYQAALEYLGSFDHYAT

VHZ = VHZ (Homo sapiens (Human), UniProt Q9BVJ7); assay: PTP selectivity panel, pNPP; type: biochemical, mammalian; conditions: pNPP at Km
Chain of VHZ (Q9BVJ7 whole entry, species assumed): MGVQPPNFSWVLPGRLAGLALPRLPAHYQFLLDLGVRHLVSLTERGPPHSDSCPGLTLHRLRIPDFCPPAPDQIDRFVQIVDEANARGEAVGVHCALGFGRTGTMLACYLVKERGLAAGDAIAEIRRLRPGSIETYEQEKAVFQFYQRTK

SHP2 = SHP2 (Homo sapiens (Human), UniProt Q06124); assay: SHP2-catalyzed hydrolysis of p-nitrophenyl phosphate (pNPP); type: biochemical
Chain of SHP2 (Q06124 whole entry, looked up): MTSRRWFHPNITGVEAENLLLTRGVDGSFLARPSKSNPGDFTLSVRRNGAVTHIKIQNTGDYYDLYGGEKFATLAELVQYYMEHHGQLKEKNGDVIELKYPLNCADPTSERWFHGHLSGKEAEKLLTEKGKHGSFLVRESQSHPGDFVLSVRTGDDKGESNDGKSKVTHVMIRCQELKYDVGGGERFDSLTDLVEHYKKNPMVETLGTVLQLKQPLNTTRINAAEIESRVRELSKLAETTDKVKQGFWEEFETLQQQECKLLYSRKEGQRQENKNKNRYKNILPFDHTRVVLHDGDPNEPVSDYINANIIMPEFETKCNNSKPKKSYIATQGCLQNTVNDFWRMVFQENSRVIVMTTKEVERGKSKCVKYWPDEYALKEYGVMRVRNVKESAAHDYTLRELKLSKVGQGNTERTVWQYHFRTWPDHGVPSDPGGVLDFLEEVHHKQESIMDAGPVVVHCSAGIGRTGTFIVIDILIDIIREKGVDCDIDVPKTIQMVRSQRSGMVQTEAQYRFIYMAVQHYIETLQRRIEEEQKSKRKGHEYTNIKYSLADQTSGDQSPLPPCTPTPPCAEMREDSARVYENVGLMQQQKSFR
Procedure: Libraries 11a-d were screened at ˜5 μM for SHP2 inhibitors without further purification. The ability of the library components to inhibit the SHP2-catalyzed hydrolysis of p-nitrophenyl phosphate (pNPP) was evaluated at pH 7.0 and 25° C. More particularly, the phosphatase activity of SHP2 was assayed using p-nitrophenyl phosphate (pNPP) as a substrate at 25° C. in 50 mM 3,3-dimethylglutarate buffer, pH 7.0, containing 1 mM EDTA with an ionic strength of […] adjusted by NaCl. The libraries were screened in a 96-well format at 5 μM compound concentration. […] The nonenzymatic hydrolysis of pNPP was corrected by measuring the control without the addition of enzyme. The amount of product p-nitrophenol was determined from the absorbance at 405 nm detected by a Spectra MAX340 microplate spectrophotometer (Molecular Devices, Sunnyvale, Calif.) using a molar extinction coefficient of 18,000 M^−1 cm^−1. […] IC50 values for selected resynthesized and purified hits were calculated by fitting the absorbance at 405 nm versus inhibitor concentration to the following equation: AI/A0=IC50/(IC50+[I]) where AI is the absorbance at 405 nm of the sample in the presence of the inhibitor; A0 is the absorbance at 405 nm in the absence of inhibitor; and [I] is the concentration of the inhibitor.

[2] = test system: 32D myeloid cells bearing KITD814V; assay: Proliferation (thymidine incorporation) of 32D myeloid cells bearing KITD814V; type: cell-based
Procedure: FIG. 8A is a graph depicting 32D myeloid cells bearing wild-type (WT) KIT or KITD814V that were starved of serum and growth factors for 6 hours and subjected to proliferation assay in the presence or absence of the indicated concentration of II-B08 or 11a-1 as analyzed in Example 6. Assay was performed in the presence of IL-3 (10 ng/mL) for cells bearing WT KIT and in the absence of growth factors for cells bearing oncogenic KITD814V. Bars denote the mean thymidine incorporation (CPM±SEM) consolidated from four independent experiments performed in triplicate. *p<0.05.
To further determine the efficacy of compound 11a-1, the growth of oncogenic KITD814V bearing 32D myeloid cells in the presence of II-B08 and 11a-1 were compared. Specifically, the wild-type (WT) KIT and KITD814V were inserted into the bicistronic retroviral vector, MIEG3, upstream of the internal ribosome entry site (IRES) and the enhanced green fluorescent protein (EGFP) gene as previously described in Mali et al., 2012. Retroviral supernatants for transduction of 32D myeloid cells and primary hematopoietic stem and progenitor cells were generated using Phoenix ecotropic packaging cell line transfected with retroviral vector plasmids using a calcium phosphate transfection kit (Invitrogen, Carlsbad, Calif.). Supernatants were collected 48 hours after transfection and filtered through 0.45 μm membranes. 32D myeloid cells were infected twice at 24-hour intervals with 2 mL high/titer virus supernatant in the presence of 10 ng/mL IL-3 and 8 μg/mL polybrene. Forty-eight hours after infection, 32D cells expressing WT KIT or KITD814V receptors were sorted to homogeneity based on EGFP expression and utilized to perform all of the experiments.

Chain of PTPα (P18433 whole entry, looked up): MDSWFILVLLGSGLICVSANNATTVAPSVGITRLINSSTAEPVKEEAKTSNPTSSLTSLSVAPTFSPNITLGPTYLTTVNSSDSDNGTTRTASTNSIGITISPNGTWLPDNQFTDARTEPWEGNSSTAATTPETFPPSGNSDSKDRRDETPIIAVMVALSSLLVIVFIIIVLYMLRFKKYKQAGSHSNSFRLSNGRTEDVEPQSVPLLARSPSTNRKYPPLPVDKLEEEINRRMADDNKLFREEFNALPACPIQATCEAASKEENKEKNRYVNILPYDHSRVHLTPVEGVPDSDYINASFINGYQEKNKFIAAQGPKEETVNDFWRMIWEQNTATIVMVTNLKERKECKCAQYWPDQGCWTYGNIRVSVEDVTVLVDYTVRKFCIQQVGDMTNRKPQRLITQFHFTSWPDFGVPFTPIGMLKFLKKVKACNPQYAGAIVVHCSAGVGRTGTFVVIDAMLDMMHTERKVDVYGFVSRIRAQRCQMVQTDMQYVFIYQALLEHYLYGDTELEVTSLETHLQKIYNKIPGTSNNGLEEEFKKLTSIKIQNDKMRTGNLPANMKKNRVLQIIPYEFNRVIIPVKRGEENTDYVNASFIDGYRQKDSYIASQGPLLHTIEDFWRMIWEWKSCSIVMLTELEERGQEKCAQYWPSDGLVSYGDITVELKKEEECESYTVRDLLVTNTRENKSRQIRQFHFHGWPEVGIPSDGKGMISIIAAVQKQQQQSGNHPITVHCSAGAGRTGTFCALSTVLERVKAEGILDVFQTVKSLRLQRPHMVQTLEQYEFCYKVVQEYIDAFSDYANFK
Chain of PTPμ (P28827 21-1452): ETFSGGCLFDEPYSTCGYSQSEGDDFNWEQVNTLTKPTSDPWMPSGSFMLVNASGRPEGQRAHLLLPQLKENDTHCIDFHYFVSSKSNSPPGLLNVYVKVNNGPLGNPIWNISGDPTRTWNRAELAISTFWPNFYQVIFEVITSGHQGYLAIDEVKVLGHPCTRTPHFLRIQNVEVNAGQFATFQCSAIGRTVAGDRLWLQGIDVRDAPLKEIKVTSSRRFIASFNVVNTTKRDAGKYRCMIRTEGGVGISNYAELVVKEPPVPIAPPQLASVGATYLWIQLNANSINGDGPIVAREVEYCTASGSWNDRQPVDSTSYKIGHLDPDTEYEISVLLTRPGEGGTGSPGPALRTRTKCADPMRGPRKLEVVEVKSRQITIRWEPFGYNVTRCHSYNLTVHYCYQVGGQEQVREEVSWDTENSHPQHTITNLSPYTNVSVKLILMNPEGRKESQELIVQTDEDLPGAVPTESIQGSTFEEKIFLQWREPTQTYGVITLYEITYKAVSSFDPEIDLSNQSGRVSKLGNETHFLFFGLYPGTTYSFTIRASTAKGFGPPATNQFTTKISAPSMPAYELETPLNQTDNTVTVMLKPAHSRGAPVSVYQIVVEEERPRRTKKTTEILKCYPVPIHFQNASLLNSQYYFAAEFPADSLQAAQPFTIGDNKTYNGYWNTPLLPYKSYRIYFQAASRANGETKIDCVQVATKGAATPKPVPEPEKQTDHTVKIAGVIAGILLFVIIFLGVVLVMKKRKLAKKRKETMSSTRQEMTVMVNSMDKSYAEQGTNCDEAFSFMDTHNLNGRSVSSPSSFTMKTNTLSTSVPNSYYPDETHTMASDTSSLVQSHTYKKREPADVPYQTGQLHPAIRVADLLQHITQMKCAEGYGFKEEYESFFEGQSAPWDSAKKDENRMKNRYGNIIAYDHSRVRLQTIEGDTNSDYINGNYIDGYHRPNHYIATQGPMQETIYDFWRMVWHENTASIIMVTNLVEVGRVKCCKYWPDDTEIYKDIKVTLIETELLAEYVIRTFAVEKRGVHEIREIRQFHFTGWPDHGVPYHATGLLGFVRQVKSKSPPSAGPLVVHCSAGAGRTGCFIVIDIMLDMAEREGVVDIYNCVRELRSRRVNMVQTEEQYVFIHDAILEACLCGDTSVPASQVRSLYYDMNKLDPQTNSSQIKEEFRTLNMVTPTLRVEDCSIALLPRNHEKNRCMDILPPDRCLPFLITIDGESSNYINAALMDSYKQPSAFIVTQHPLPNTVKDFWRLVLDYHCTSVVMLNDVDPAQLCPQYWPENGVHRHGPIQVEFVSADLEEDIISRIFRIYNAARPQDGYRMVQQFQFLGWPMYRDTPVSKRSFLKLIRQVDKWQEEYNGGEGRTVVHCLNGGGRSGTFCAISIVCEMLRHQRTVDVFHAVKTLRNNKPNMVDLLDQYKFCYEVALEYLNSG
Chain of VHR (P51452 whole entry, species assumed): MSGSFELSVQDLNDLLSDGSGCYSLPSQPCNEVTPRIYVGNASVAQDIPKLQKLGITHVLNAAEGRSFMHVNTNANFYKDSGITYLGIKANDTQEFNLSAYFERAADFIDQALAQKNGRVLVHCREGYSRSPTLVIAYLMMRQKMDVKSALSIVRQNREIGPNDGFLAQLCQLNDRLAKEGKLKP

## Cn1c(-c2cccc(NC(=O)C(=O)Nc3ccc(-c4ccsc4)cc3)c2)c(I)c2cc(C(=O)O)c(O)cc21 [11a-1, 6-hydroxy-3-iodo-1-methyl-2-(3-(2-oxo-2-((4-(thiophen-3-yl)phenyl)amino)acetamido)phenyl)-1H-indole-5-carboxylic acid]
VHR
  IC50: 3.19 ± 0.09 µM
PTPμ
  IC50: 3.3 ± 0.2 µM
PTPα
  IC50: > 100 µM
PEZ
  IC50: 5.3 ± 0.2 µM
PTPε
  IC50: > 20 µM
[1]
  effect on PMA-induced Erk1/2 phosphorylation: no effect
H1975 cells
  IC50: 0.17 ± 0.02 µM
PTP1B
  preference for SHP2 over PTP1B: 11 fold
mPTPA
  IC50: 1.09 ± 0.04 µM
PTPσ
  IC50: 8.6 ± 0.4 µM
VHZ
  IC50: 2.3 ± 0.2 µM
SHP2
  selectivity for SHP2 over a panel of 20 mammalian PTPs: over 5 fold
SHP2; pNPP substrate, pH 7.0, 25° C.
  IC50: 0.2 ± 0.02 µM
[2]; 1 μM
  ligand independent growth of KITD814V bearing 32D cells: significant inhibition
[2]; 5 μM
  ligand independent growth of KITD814V bearing 32D cells: significant inhibition
